Earlier results as cited in publication PMC3850926, “Evaluation of the adverse event profile and pharmacodynamics of toceranib phosphate administered to dogs with solid tumors at doses below the maximum tolerated dose” (BMC Veterinary Research, 2013).

Key:
[1] = tested on: VEGF; design: method as in PMID 19212818; conditions: human patients; return to baseline during rest period; cited from earlier work
[2] = tested on: human cancer patients; conditions: cited from earlier work

Question: Which “circulating endothelial precursors and plasma VEGF during treatment” value [1] does the source give for `CCN(CC)CCNC(=O)c1c(C)[nH]c(/C=C2\C(=O)Nc3ccc(F)cc32)c1C` [sunitinib] here?
Answer: The value was “increase over time during treatment”.

Question: What about the “incidence of PLN” value ([2]; human cancer patients) of the same molecule?
Answer: The value was “approximately 2.5%”.

Question: And the “hypertension classified as grade 3” value ([2]; human patients with RCC)?
Answer: The value was 8%.

Question: What about the “patients that developed hypertension” value ([2]; human patients with renal cell carcinoma (RCC)) of the same molecule?
Answer: Its value is 24%.
